Test results: PubChem BioAssay AID328 (DTP/NCI, 2004)
Where “and” joins values, the source holds several entries; their conditions need not be identical. Equal values may be shown once. Inconclusive results and toxic doses are left out.

Tested on: BDF1 mice, P388 leukemia ip, median survival T/C
Assay: NCI In Vivo Anticancer Drug Screen. Data for tumor model P388 Leukemia (intraperitoneal) in B6D2F1 (BDF1) mice
Conditions: endpoint: median survival time, higher = longer survival
Outline: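 Mice carrying the transplantable tumour receive compound or vehicle. Survival is followed in each arm, and the treated measure is divided by the vehicle measure.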

[1] = dose: 100.0 mg/kg/injection, schedule: Q04DX003 (ip), vehicle: Klucel (hydroxypropylcellulose) (HPC)
[2] = dose: 200.0 mg/kg/injection, schedule: Q04DX003 (ip), vehicle: Klucel (hydroxypropylcellulose) (HPC)
[3] = dose: 400.0 mg/kg/injection, schedule: Q04DX003 (ip), vehicle: Klucel (hydroxypropylcellulose) (HPC)
[4] = dose: 100.0 mg/kg/injection, schedule: Q01DX001 (ip), vehicle: saline with Tween-80
[5] = dose: 200.0 mg/kg/injection, schedule: Q01DX001 (ip), vehicle: saline with Tween-80
[6] = dose: 400.0 mg/kg/injection, schedule: Q01DX001 (ip), vehicle: saline with Tween-80
[7] = dose: 50.0 mg/kg/injection, schedule: Q01DX009 (ip), vehicle: saline
[8] = dose: 100.0 mg/kg/injection, schedule: Q01DX009 (ip), vehicle: saline
[9] = dose: 100.0 mg/kg/injection, schedule: Q04DX003 (ip), vehicle: saline with Tween-80
[10] = dose: 200.0 mg/kg/injection, schedule: Q04DX003 (ip), vehicle: saline with Tween-80
[11] = dose: 400.0 mg/kg/injection, schedule: Q04DX003 (ip), vehicle: saline with Tween-80
[12] = dose: 25.0 mg/kg/injection, schedule: Q01DX009 (ip), vehicle: saline with Tween-80
[13] = dose: 50.0 mg/kg/injection, schedule: Q01DX009 (ip), vehicle: saline with Tween-80
[14] = dose: 50.0 mg/kg/injection, schedule: Q04DX003 (ip), vehicle: saline with Tween-80
[15] = dose: 100.0 mg/kg/injection, schedule: Q01DX009 (ip), vehicle: saline with Tween-80
[16] = dose: 200.0 mg/kg/injection, schedule: Q01DX009 (ip), vehicle: saline with Tween-80
[17] = dose: 400.0 mg/kg/injection, schedule: Q01DX009 (ip), vehicle: saline with Tween-80

## [Cl][Pt+2][Cl].[NH-]C1CCCC1.[NH-]C1CCCC1
dose: 10.0 mg/kg/injection, schedule: Q01DX009 (ip), vehicle: Klucel (hydroxypropylcellulose) (HPC)
  T/C: 96 % of control
dose: 20.0 mg/kg/injection, schedule: Q01DX009 (ip), vehicle: Klucel (hydroxypropylcellulose) (HPC)
  T/C: 107 % of control
dose: 40.0 mg/kg/injection, schedule: Q01DX009 (ip), vehicle: Klucel (hydroxypropylcellulose) (HPC)
  T/C: 112 % of control
dose: 80.0 mg/kg/injection, schedule: Q01DX009 (ip), vehicle: Klucel (hydroxypropylcellulose) (HPC)
  T/C: 117 % of control

## CCCCN1C(=O)C/C(=C2\CC(=O)N(CCCC)C2=O)C1=O
[1]
  T/C: 116 % of control
[2]
  T/C: 95 % of control
[3]
  T/C: 95 % of control

## BrCC12CCC1(CBr)COC2 (stereo not given)
dose: 100.0 mg/kg/injection, schedule: Q01DX001 (ip), vehicle: Klucel (hydroxypropylcellulose) (HPC)
  T/C: 107 % of control
dose: 200.0 mg/kg/injection, schedule: Q01DX001 (ip), vehicle: Klucel (hydroxypropylcellulose) (HPC)
  T/C: 92 % of control
dose: 400.0 mg/kg/injection, schedule: Q01DX001 (ip), vehicle: Klucel (hydroxypropylcellulose) (HPC)
  T/C: 100 % of control

## COc1cccc(CC2c3ccccc3Nc3ccccc32)c1
[4]
  T/C: 88 % of control
[5]
  T/C: 87 % of control
[6]
  T/C: 89 % of control

## FC(F)(F)c1cc(CN(CCCl)CCCl)cc(C(F)(F)F)c1
dose: 12.5 mg/kg/injection, schedule: Q01DX009 (ip), vehicle: Klucel (hydroxypropylcellulose) (HPC)
  T/C: 101 % of control
dose: 12.5 mg/kg/injection, schedule: Q01DX009 (ip), vehicle: other
  T/C: 116 % of control
dose: 12.5 mg/kg/injection, schedule: Q01DX009 (ip), vehicle: saline
  T/C: 100 % of control
dose: 25.0 mg/kg/injection, schedule: Q01DX009 (ip), vehicle: Klucel (hydroxypropylcellulose) (HPC)
  T/C: 108 % of control and 120 % of control
dose: 25.0 mg/kg/injection, schedule: Q01DX009 (ip), vehicle: saline
  T/C: 188 % of control
dose: 50.0 mg/kg/injection, schedule: Q01DX009 (ip), vehicle: other
  T/C: 150 % of control
[7]
  T/C: 172 % of control
dose: 100.0 mg/kg/injection, schedule: Q01DX009 (ip), vehicle: Klucel (hydroxypropylcellulose) (HPC)
  T/C: 153 % of control and 165 % of control
[8]
  T/C: 194 % of control

## CCC[CH2][Sn]1([CH2]CCC)[O]OC2(CCCCC2)[O]1
dose: 1.25 mg/kg/injection, schedule: Q01DX009 (ip), vehicle: Klucel (hydroxypropylcellulose) (HPC)
  T/C: 115 % of control
dose: 1.57 mg/kg/injection, schedule: Q04DX003 (ip), vehicle: saline sonified
  T/C: 122 % of control
dose: 3.13 mg/kg/injection, schedule: Q04DX003 (ip), vehicle: saline sonified
  T/C: 116 % of control
dose: 5.0 mg/kg/injection, schedule: Q01DX009 (ip), vehicle: Klucel (hydroxypropylcellulose) (HPC)
  T/C: 115 % of control

## c1ccc(SCC2c3ccccc3Nc3ccccc32)cc1
[4]
  T/C: 109 % of control
[5]
  T/C: 114 % of control
[6]
  T/C: 109 % of control

## Oc1c(O)c(Cl)c(Cl)c(Cl)c1Cl
dose: 12.5 mg/kg/injection, schedule: Q01DX009 (ip), vehicle: saline sonified
  T/C: 95 % of control
dose: 12.5 mg/kg/injection, schedule: Q04DX003 (ip), vehicle: saline sonified
  T/C: 100 % of control
dose: 25.0 mg/kg/injection, schedule: Q01DX009 (ip), vehicle: saline sonified
  T/C: 108 % of control
dose: 25.0 mg/kg/injection, schedule: Q04DX003 (ip), vehicle: saline sonified
  T/C: 100 % of control
dose: 50.0 mg/kg/injection, schedule: Q01DX009 (ip), vehicle: saline sonified
  T/C: 116 % of control
dose: 50.0 mg/kg/injection, schedule: Q04DX003 (ip), vehicle: saline sonified
  T/C: 100 % of control

## CC1(C)c2ccccc2C(=O)C1Cc1ccccc1 (stereo not given)
[7]
  T/C: 93 % of control
dose: 50.0 mg/kg/injection, schedule: Q04DX003 (ip), vehicle: saline
  T/C: 109 % of control
[8]
  T/C: 98 % of control
dose: 100.0 mg/kg/injection, schedule: Q04DX003 (ip), vehicle: saline
  T/C: 119 % of control
dose: 200.0 mg/kg/injection, schedule: Q01DX009 (ip), vehicle: saline
  T/C: 121 % of control
dose: 200.0 mg/kg/injection, schedule: Q04DX003 (ip), vehicle: saline
  T/C: 119 % of control
dose: 400.0 mg/kg/injection, schedule: Q01DX009 (ip), vehicle: saline
  T/C: 119 % of control
dose: 400.0 mg/kg/injection, schedule: Q04DX003 (ip), vehicle: saline
  T/C: 109 % of control

## CC[C@H]1OC(=O)[C@H](C)[C@@H](OC2CC(C)(OC)C(OC(=O)CCCC(=O)O)C(C)O2)[C@H](C)[C@@H](OC2OC(C)CC(N(C)C)C2O)[C@](C)(O)C[C@@H](C)C(=O)[C@H](C)[C@@H](O)[C@]1(C)O (stereo not given in full)
dose: 7.5 mg/kg/injection, schedule: Q01DX009 (ip), vehicle: Klucel (hydroxypropylcellulose) (HPC)
  T/C: 111 % of control
dose: 15.0 mg/kg/injection, schedule: Q01DX009 (ip), vehicle: Klucel (hydroxypropylcellulose) (HPC)
  T/C: 101 % of control
dose: 30.0 mg/kg/injection, schedule: Q01DX009 (ip), vehicle: Klucel (hydroxypropylcellulose) (HPC)
  T/C: 97 % of control
dose: 60.0 mg/kg/injection, schedule: Q01DX009 (ip), vehicle: Klucel (hydroxypropylcellulose) (HPC)
  T/C: 111 % of control

## COC(=O)/C(C#N)=C/c1c[nH]c2ccccc12
[9]
  T/C: 100 % of control
[10]
  T/C: 109 % of control
[11]
  T/C: 100 % of control

## O=C1OC(c2ccccc2)=C/C1=C/c1ccccc1O
[12]
  T/C: 109 % of control
[13]
  T/C: 91 % of control
[14]
  T/C: 104 % of control
[15]
  T/C: 97 % of control
[9]
  T/C: 109 % of control
[16]
  T/C: 97 % of control and 118 % of control
[10]
  T/C: 116 % of control
dose: 300.0 mg/kg/injection, schedule: Q01DX009 (ip), vehicle: saline with Tween-80
  T/C: 108 % of control
[17]
  T/C: 113 % of control and 124 % of control
[11]
  T/C: 114 % of control
dose: 500.0 mg/kg/injection, schedule: Q01DX009 (ip), vehicle: saline with Tween-80
  T/C: 122 % of control

## CC(=O)OCC(=O)[C@@]1(O)CC[C@H]2[C@@H]3CCC4=CC(=O)CC[C@]4(C)[C@H]3C(=O)C[C@@]21C
[13]
  T/C: 95 % of control
[15]
  T/C: 112 % of control
[9]
  T/C: 100 % of control
[16]
  T/C: 100 % of control
[10]
  T/C: 86 % of control

## Cc1cc(C)c(NS(=O)(=O)c2ccccc2)c(C)n1
[9]
  T/C: 100 % of control
[10]
  T/C: 91 % of control
[11]
  T/C: 91 % of control

## Clc1nc2nsnc2nc1Cl
dose: 6.25 mg/kg/injection, schedule: Q04DX003 (ip), vehicle: saline with Tween-80
  T/C: 101 % of control
dose: 12.5 mg/kg/injection, schedule: Q01DX009 (ip), vehicle: saline with Tween-80
  T/C: 104 % of control
dose: 12.5 mg/kg/injection, schedule: Q04DX003 (ip), vehicle: saline with Tween-80
  T/C: 94 % of control and 115 % of control
[12]
  T/C: 98 % of control
dose: 25.0 mg/kg/injection, schedule: Q04DX003 (ip), vehicle: saline with Tween-80
  T/C: 101 % of control and 107 % of control
[13]
  T/C: 107 % of control
[14]
  T/C: 97 % of control and 107 % of control
[15]
  T/C: 122 % of control
[9]
  T/C: 105 % of control
[16]
  T/C: 118 % of control
[10]
  T/C: 110 % of control and 112 % of control
dose: 300.0 mg/kg/injection, schedule: Q04DX003 (ip), vehicle: saline with Tween-80
  T/C: 115 % of control
[17]
  T/C: 105 % of control

## O=C(O)CCCCCCCCCCCCO
[1]
  T/C: 109 % of control
[2]
  T/C: 90 % of control
[3]
  T/C: 90 % of control

## [Cl][Cr]([Cl])[Cl].[NH-]CC[N-]CC[NH-]
[13]
  T/C: 116 % of control
[15]
  T/C: 100 % of control
[16]
  T/C: 100 % of control

## C/C(=C\Cl)CN(C)C
dose: 56.25 mg/kg/injection, schedule: Q01DX001 (ip), vehicle: saline
  T/C: 100 % of control
dose: 56.25 mg/kg/injection, schedule: Q04DX003 (ip), vehicle: saline
  T/C: 95 % of control
dose: 112.5 mg/kg/injection, schedule: Q01DX001 (ip), vehicle: saline
  T/C: 86 % of control
dose: 112.5 mg/kg/injection, schedule: Q04DX003 (ip), vehicle: saline
  T/C: 90 % of control
dose: 150.0 mg/kg/injection, schedule: Q01DX009 (ip), vehicle: saline
  T/C: 105 % of control
dose: 225.0 mg/kg/injection, schedule: Q01DX001 (ip), vehicle: saline
  T/C: 100 % of control
dose: 225.0 mg/kg/injection, schedule: Q01DX009 (ip), vehicle: saline
  T/C: 105 % of control
